Laboratory results as given in patent US9910031B2, “Compositions and methods for modulating c-Rel-dependent cytokine production” (Synta Pharmaceuticals Corporation, priority 2003, dated 2018).

Key:
human IL-12 p35 promoter = experiment: IL-12 p35 promoter/luciferase reporter in transiently transfected RAW264.7 cells; format: cell-based, murine; details: for p35 promoter-driven luciferase expression: RAW264.7, IFN-γ/LPS or IFN-γ/SAC
Procedure: (§1) As a result of the Northern blot findings, we undertook a study of the p35 and p40 promoter activities. We transiently transfected the murine macrophage cell line RAW264.7 with DNA constructs in which the p35 and p40 promoters directed expression of the luciferase reporter gene. The RAW264.7 cell line was obtained from American Type Culture Collection (Manassas, Va.) and was cultured in DMEM (ATCC, Manassas, Va.) supplemented with 10% FCS (ATCC, Manassas, Va.), and 1% penicillin/Streptomycin (Gibco-BRL, New York, N.Y.).
Both p35 and p40 promoter-driven luciferase production in response to stimulation were determined in the presence or absence of Compound 1 and Compound 2. To construct the human IL-12 p35 and p40 promoter/luciferase reporter constructs, we generated p35 (−1.5 kb to +3 bp) and p40 (−1.3 kb to +56 bp) promoter fragments, which contained several sequence motifs of the human IL-12 p35 and p40 genes. The fragments were generated by PCR from genomic DNA obtained from human PBMC using primers as follows: IL-12 p35 1.5 kb-F: 5′-[…]-3′(SEQ ID NO:3) and IL-12 p35 1.5 kb-R: 5′-[…]-3′ (SEQ ID NO:4); IL-12 p40 −1.3 kb-F: 5′-[…]-3′ (SEQ ID NO:5) and IL-12 p40 1.3 kb-R: 5′-[…]-3′ (SEQ ID NO:6). The deletion in the p40 promoter reporter constructs were generated by PCR with primers as follows: IL-12 p40 −250 bp to +56 bp (p40/−250 bp) F: 5′-[…]-3′(SEQ ID NO:7) and IL-12 p40 −250 bp to +56 bp (p401/−250 bp) R: 5′-TGCTCTGGGCAGGACGGAG-3′ (SEQ ID NO:8); IL-12 p40 −150 bp to +56 bp (p40/−150 bp) F: 5′-[…]-3′ (SEQ ID NO:9) and IL-12 p40 −150 bp to +56 bp (p40/−150 bp) R: 5′-TGCTCTGGGCAGGACGGAG-3′(SEQ ID NO:10). […]
Cells were co-transfected with the vector pCMV (BD Biosciences Clontech) in which the constitutively active CMV promoter directs β-galactosidase expression for the monitoring of transfection efficiency. Luciferase and β-galactosidase activity were determined in cell extracts prepared according to the Luciferase assay system (Promega) and Luminescent n-gal Detection system (BD Biosciences Clontech). […]

[1] = tested on: IL-12 production in THP-1 cells; experiment: Inhibition of IL-12 production in THP-1 cells (ELISA); format: cell-based; details: Homo sapiens, read-out: IC50 against IL-12 production
Description: The foregoing and other useful combination therapies will be understood and appreciated by those of skill in the art. Potential advantages of such combination therapies include the ability to use less of each of the individual active ingredients to minimize toxic side effects, synergistic improvements in efficacy, improved ease of administration or use and/or reduced overall expense of compound preparation or formulation. The biological activities of a compound of this invention can be evaluated by a number of cell-based assays. One of such assays can be conducted using cells from human peripheral blood mononuclear cells (PBMC) or human monocytic cell line (THP-1). The cells are stimulated with a combination of human interferon-γ (IFN-γ) and lipopolysaccharide or a combination of IFN-γ and Staphylococcus aureus Cowan I in the presence of a test compound. The level of inhibition of IL-12 production can be measured by, e.g., determining the amount of p70 by using a sandwich ELBA assay with anti-human IL-12 antibodies. IC50 of the test compound can then be determined. Specifically, PBMC or THP-1 cells are incubated with the test compound. Cell viability was assessed using the bioreduction of MTS [3-(4,5-dimethylthiazol-2-yl)-5-(3-carboxymethoxyphenyl)-2-(4-sulfophenyl)-2H-tetrazolium] (Promega, Madison, Wis.). […]

human IL-12 p40 promoter = experiment: IL-12 p40 promoter/luciferase reporter in transiently transfected RAW264.7 cells; format: cell-based, murine; details: for p40 promoter-driven luciferase expression: RAW264.7, IFN-γ/LPS or IFN-γ/SAC
Procedure: as §1
Both p35 and p40 promoter-driven luciferase production in response to stimulation were determined in the presence or absence of Compound 1 and Compound 2. To construct the human IL-12 p35 and p40 promoter/luciferase reporter constructs, we generated p35 (−1.5 kb to +3 bp) and p40 (−1.3 kb to +56 bp) promoter fragments, which contained several sequence motifs of the human IL-12 p35 and p40 genes. The fragments were generated by PCR from genomic DNA obtained from human PBMC using primers as follows: IL-12 p35 1.5 kb-F: 5′-[…]-3′(SEQ ID NO:3) and IL-12 p35 1.5 kb-R: 5′-[…]-3′ (SEQ ID NO:4); IL-12 p40 −1.3 kb-F: 5′-[…]-3′ (SEQ ID NO:5) and IL-12 p40 1.3 kb-R: 5′-[…]-3′ (SEQ ID NO:6). The deletion in the p40 promoter reporter constructs were generated by PCR with primers as follows: IL-12 p40 −250 bp to +56 bp (p40/−250 bp) F: 5′-[…]-3′(SEQ ID NO:7) and IL-12 p40 −250 bp to +56 bp (p401/−250 bp) R: 5′-TGCTCTGGGCAGGACGGAG-3′ (SEQ ID NO:8); IL-12 p40 −150 bp to +56 bp (p40/−150 bp) F: 5′-[…]-3′ (SEQ ID NO:9) and IL-12 p40 −150 bp to +56 bp (p40/−150 bp) R: 5′-TGCTCTGGGCAGGACGGAG-3′(SEQ ID NO:10). The resulting PCR products were ligated upstream of the luciferase gene in pGL3-Basic vector (Promega). All constructs were verified by DNA sequencing.
Transfection was accomplished using SuperFect Transfection Reagent (Qiagen) by the described protocol. Total amount of transfect DNA was kept constant by including the respective control plasmids without insertions.
Cells were co-transfected with the vector pCMV (BD Biosciences Clontech) in which the constitutively active CMV promoter directs β-galactosidase expression for the monitoring of transfection efficiency. Luciferase and β-galactosidase activity were determined in cell extracts prepared according to the Luciferase assay system (Promega) and Luminescent n-gal Detection system (BD Biosciences Clontech). Luciferase activity was then normalized using the β-galactosidase value. […] ELISA was performed by the following method. Human IL-12 p70 (heterodimer) was assayed using ELI-PAIR kit from Cell Sciences (Norwood, Mass.), according to the manufacturer's instructions. Human IL-12 p40 was assayed using ELISA kit from Cell Sciences (Norwood, Mass.) according to the manufacturer's instructions.
We then set out to analyze the IL-12 transcriptional promoter elements that played a role in this effect. We performed deletion analyses using the p40 promoter. This promoter, rather than the p35 promoter, was chosen because the transcriptional elements are better defined in the p40 promoter. To identify the IL-12 inhibitor responsive elements involved in the p40 gene transcription activation, three different promoters were constructed and transiently transfected into RAW264.7 cells.
To assess the role of individual p40 promoter transcription elements in more detail, mutations within many of these elements have been generated. […]

With C(=NNc1nc(OCCc2ccccn2)nc(N2CCOCC2)n1)c1c[nH]c2ccccc12 [Compound 1, N-(1H-indol-3-ylmethylene)-N′-[4-morpholin-4-yl-6-(2-pyridin-2-yl-ethoxy)-[1,3,5]triazin-2-yl]-hydrazine] the “p35 promoter-driven luciferase expression” value (human IL-12 p35 promoter) was “suppressed”, the IC50 [1] was 40 nM and the “p40 promoter-driven luciferase expression” value (human IL-12 p40 promoter) was “suppressed”. The “IL-12 p40 promoter-driven luciferase activity, deletion construct” value (human IL-12 p40 promoter; RAW264.7, IFN-γ/LPS, promoter containing Ets-2, PU-1, NF-κB and API elements) was “significantly suppressed”.
Cc1cccc(C=NNc2cc(N3CCOCC3)nc(OCCc3ccccn3)n2)c1 [Compound 2, N-(3-methyl-benzylidene)-N′-[6-morpholin-4-yl-2-(2-pyridin-2-yl-ethoxy)-pyrimidin-4-yl]-hydrazine] was tested, and the “p35 promoter-driven luciferase expression” value (human IL-12 p35 promoter) was “suppressed”, the “p35 promoter-driven luciferase expression, comparison between compounds” value (human IL-12 p35 promoter; RAW264.7, stimulated by IFN-γ/LPS, Compound 2 compared with Compound 1) was “inhibited more effectively” and the IC50 [1] was 10 nM. The “p40 promoter-driven luciferase expression” value (human IL-12 p40 promoter) was “suppressed”, the “effect of ICSBP over-expression on inhibition of p40 expression” value (human IL-12 p40 promoter; co-transfection of ICSBP with IL-12 promoter-Luc reporter) was “decreased the inhibition” and the “inhibition of expression in NFκB-element mutant p40 promoter construct” value (human IL-12 p40 promoter; site-directed mutant of the NFκB element, IFN-γ/LPS) was “reduced”.
